According to the NIST ThermoML archive (doi:10.1016/j.tca.2015.02.001):
Numbers after ± are expanded uncertainties.

Columns and labels:
[1] = Crystal; DTA
[2] = Molar enthalpy of transition or fusion; settings: Crystal; DSC

Compound	Triple point temperature [1]	Molar enthalpy of transition or fusion [2]
CCn1cc[n+](C)c1.[Br-] [1-ethyl-3-methylimidazolium bromide]	340.15 ± 2 K	4.61 ± 0.359 kcal/mol
CCn1cc[n+](C)c1.[Cl-] [1-ethyl-3-methylimidazolium chloride]	359.15 ± 2 K	3.39 ± 0.335 kcal/mol
CCn1cc[n+](C)c1.[I-] [1-ethyl-3-methylimidazolium iodide]	347.15 ± 2 K	4.04 ± 0.311 kcal/mol
